Results taken from patent US9611286B2, “Ruthenium carbon monoxide releasing molecules and uses thereof” (Alfama, Inc., priority 2011, dated 2017).
“Also recorded” adds a separate entry of the source.

Experiments:
P. berghei ANKA = assay: In vitro replication of P. berghei ANKA; type: cell-based, Plasmodium berghei; conditions: 24 h
Method: The data led the inventors to wonder whether Compound 1 could have a direct anti-parasitic effect on P. berghei ANKA and P. falciparum parasites. To this end, the effect of Compound 1 and the anti-malarial chloroquine (CQ) was monitored on the in vitro replication of P. falciparum 3D7 isolate and P. berghei ANKA for 48 h and 24 h, respectively.

Hen Egg White Lysozyme C = biological target: T1, Hen Egg White Lysozyme C (Gallus gallus, UniProt P00698); assay: Hen egg white lysozyme (HEWL) assay, reactivity with proteins by LC-MS; type: binding; conditions: 10 equiv in H2O, room temperature, 10 minutes and 1 hour
T1 construct: one corresponding to the mass of native lysozyme (14305=calculated mass); from tissue; host or cells: hen egg white
T1 sequence (P00698 19-147): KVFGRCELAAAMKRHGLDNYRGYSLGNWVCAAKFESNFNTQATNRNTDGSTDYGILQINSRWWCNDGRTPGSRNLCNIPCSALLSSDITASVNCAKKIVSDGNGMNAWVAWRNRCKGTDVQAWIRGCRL
From the text: The hen egg white lysozyme (HEWL) assay was used to assess the reactivity of Compound 1 in the presence of proteins (see, e.g., Santos-Silva, T. et al. J Am Chem Soc (2011) 133, 1192-1195). This paper describes the interactions of CORM-3 with plasma proteins. CORM-3 reacts rapidily with proteins, losing chloride ion, glycinate, and one CO ligand. […] It was observed that CORM-3 reacts faster and has a much weaker efficacy than Compound 1 in this ECM treatment.
Liquid chromatography-mass spectrometry (LC-MS) was performed on a Micromass Quattro API instrument (ESI-TOF-MS) coupled to a Waters Alliance 2795 HPLC using a MassPREP On-Line Desalting Cartridge. […]
Hen Egg White Lysozyme C (PDB code 3b61; UniProtKB/Swiss-Prot code P00698). […] Quantitative determination of lysozyme-ligand binding in the solution and gas phases by electrospray ionisation mass spectrometry follows Veros et al., Rapid Commun. […] A 50 μL aliquot was analyzed by LC-MS (calculated average isotopic mass of the egg white lysozyme=14305.1).
Santos-Silva and co-workers previously describe CORM-3's reactivity towards proteins and formation of a Ru(II) dicarbonyl-lysozyme complex (see, e.g., Santos-Silva et al., J. Am. Chem. Soc. (2011) 133:1192-1195). […] 50 μL aliquots were collected and analyzed by LC-MS over the reaction time (10 minutes and 1 hour). […]

[1] = Quantification of Ru in tissues (bio-distribution); conditions: liver, kidney, spleen, lung and brain
Method: Tricarbonyldichloro(methylthiogalactopyranoside) Ru(II) [Ru(CO)3Cl2(Gal-S-Me)], also referred to herein as Compound 1, was prepared by reacting CORM-2 with methylthiogalactopyranoside (Gal-S-Me) as described herein (see FIG. 2a and Materials and Methods section). The bio-distribution of Compound 1 in tissues was assessed by quantifying the levels of Ru and CO in the host by the method of Vreman et al., Anal Biochem (2005) 341:280-9. Liver, kidney, spleen, lung and brain tissues of non-infected mice (NI) were analyzed one hour after administration of Compound 1 and the control molecule, Compound 2 (FIG. 2b). […] The spleen is an organ that plays a crucial role in erythrophagocytosis, process important for red blood cell turnover, and recycling of iron. Erythrocytes are hydrolyzed by splenic macrophages, where the degradation of hemoglobin occurs, haem is release, and is catabolized by heme oxygenase-1 into biliverdin, carbon monoxide and ferrous iron (Fe^2+).
The tissue samples were weighed and dried at 80° C. overnight followed by 2 or more hours at 120° C. […] The Ru content was analyzed by an inductively coupled plasma-atomic emission spectrometer (ICP-AES) (model Ultima-Horiba Jobin Yvon, Longjumeau, France) using an external Ru standard method.

For `C[SH]([C@@H]1OC(CO)[C@H](O)[C@H](O)C1O)[Ru]([Cl])([Cl])([CH]=O)([CH]=O)[CH]=O` (stereo partly drawn) [Compound 1, Tricarbonyldichloro(methylthiogalactopyranoside) Ru(II)], the “inhibition of in vitro growth” value (P. berghei ANKA) was “does not inhibit in vitro growth”, the “reactivity with HEWL (adduct formation)” value (Hen Egg White Lysozyme C) was “forms protein-Ru^II(CO)2 adducts but reacts slower than CORM-3” and the “Ru distribution in organs” value [1] was “marked affinity for the liver; also recorded: No signs of ruthenium are found in the brain”.
